Test results: patent EP0603240B1, “SAFENING HERBICIDAL PYRAZOLYLSULFONYLUREAS” (priority 1991, dated 1993)

Experiments:
Format in all cases: in vivo
corn [1] = assay: Example 3, Procedure I: antidotes against Herbicide No. 1; details: Herbicide No. 1, Table 3
Method: (§1) Containers were filled and compacted with a fumigated silt loam top soil to a depth of about 1.3 cm from the top of the container. A first container was designated as an untreated control, a second container was designated as a herbicide control, and a third container was designated as a herbicide + antidote test container. Each of the containers was seeded with a crop species. A measured amount of herbicide dispersed or dissolved in acetone was applied to a measured quantity of soil. To this same quantity of soil treated with herbicide, there was added a measured amount of antidote dispersed or dissolved in acetone. The quantity of soil treated with the herbicide and antidote was thoroughly mixed to incorporate the herbicide and antidote in the soil uniformly. The seed bed in the third container of soil was covered with the soil treated with the herbicide and antidote and the container was leveled. For each test series, the seed beds of the first and second containers were likewise covered by soil layers. the cover layer of the first container was not treated with herbicide or antidote.
(§2) The containers were then placed on a bench in a greenhouse and sub-irrigated as required for the duration of the test. […] Plant response is measured in terms of percent injury. Antidote efficacy is indicated as the difference in plant injury by the herbicide(s) without the antidote and with the antidote.
This example details the results of tests with Antidote Nos. 12, 15 and 16 to safen Herbicide No. 1 over application rates ranging from 4.48 kg/ha down to 0.56 kg/ha, in corn in the presence of barnyardgrass. Procedure I described above was used in these tests.

corn [2] = assay: Example 20, Procedure II: Herbicide No. 1 + EPTC or ERADICANE EXTRA with Antidote Nos. 5 and 15
Method: as §1, §2
(§3) This procedure is the same as Procedure I, but modified in the manner that after incorporation of the chemicals (herbicide and antidote) the containers with the covered seedbed were treated with an initial overhead irrigation equivalent to 0.6 cm rainfall, then subsequently sub-irrigated as required on greenhouse benches.
(§4) This example describes experiments designed to test two generally efficacious antidotal compounds, i.e., Antidote Nos. 5 and 15, against the herbicidal action of the sulfonylurea compound, Herbicide No. 1, and the commercial herbicides EPTC (Herbicide No. 4) and ERADICANE® EXTRA (EPTC + R-29148, Antidote No. 5). Procedure II above was used in conducting these experiments. Formulations of EPTC and ERADICANE EXTRA were applied onto soil cover layers (to be applied over seed beds), followed by sequential pipetting of Herbicide No. 1 and Antidote No. 15. The soil was mixed to homogeneity and spread over the seed beds followed by 0.6 cm of overhead irrigation.

[3] = system: velvetleaf (Abutilon theophrasti); assay: as above
Method: as §1, §2, §3
In the series of greenhouse tests described below, for routine screening purposes the herbicide/antidote compositions were tested in crop/weed combinations involving corn as the crop and either or both of the weeds barnyardgrass (Echinochloa crusgalli), a monocotyledonous weed, and velvetleaf (Abutilon theophrasti), a dicotyledonous weed. In the tables below, these weeds are indicated by the symbols "BYG" and "VL", respectively.
as §4

corn [4] = assay: Example 16, Procedure II: Herbicide No. 1 + EPTC (No. 4, EPTAM) with antidotes
Method: as §1, §2, §3
The test procedure used in these experiments was that of Procedure II described above. The antidotes were applied to a soil cover layer by pipet after spraying the herbicides onto the soil, followed by incorporation and overhead irrigation. […]

[5] = Herbicide No.1 0.56 kg/ha + No. 4 2.24 kg/ha, Antidote No. 15 0.18 kg/ha
[6] = Herbicide No.1 0.56 kg/ha + No. 4 4.48 kg/ha, Antidote No. 15 0.35 kg/ha
[7] = Herbicide No.1 0.56 kg/ha + No. 4 6.78 kg/ha, Antidote No. 15 0.56 kg/ha
[8] = Herbicide No.1 2.24 kg/ha + No. 4 2.24 kg/ha, Antidote No. 15 0.18 kg/ha
[9] = Herbicide No.1 2.24 kg/ha + No. 4 4.48 kg/ha, Antidote No. 15 0.35 kg/ha
[10] = Herbicide No.1 2.24 kg/ha + No. 4 6.78 kg/ha, Antidote No. 15 0.56 kg/ha
[11] = Herbicide No.1 0.56 kg/ha alone
[12] = Herbicide No.1 0.56 kg/ha + ERADICANE EXTRA 2.24 kg/ha
[13] = Herbicide No.1 0.56 kg/ha + ERADICANE EXTRA 4.48 kg/ha
[14] = Herbicide No.1 0.56 kg/ha + ERADICANE EXTRA 6.72 kg/ha
[15] = Herbicide No.1 0.56 kg/ha + No. 4 2.24 kg/ha, no antidote
[16] = Herbicide No.1 0.56 kg/ha + No. 4 4.48 kg/ha, no antidote
[17] = Herbicide No.1 0.56 kg/ha + No. 4 6.72 kg/ha, no antidote
[18] = Herbicide No.1 2.24 kg/ha + ERADICANE EXTRA 2.24 kg/ha
[19] = Herbicide No.1 2.24 kg/ha + ERADICANE EXTRA 4.48 kg/ha
[20] = Herbicide No.1 2.24 kg/ha + ERADICANE EXTRA 6.72 kg/ha
[21] = Herbicide No.1 2.24 kg/ha + No. 4 2.24 kg/ha, no antidote
[22] = Herbicide No.1 2.24 kg/ha + No. 4 4.48 kg/ha, no antidote
[23] = Herbicide No.1 2.24 kg/ha + No. 4 6.72 kg/ha, no antidote
[24] = Herbicide No.1 2.24 kg/ha alone

CC1(C)OC(c2ccco2)CN1C(=O)C(Cl)Cl (stereo not shown) [Antidote No. 15, Oxazolidine, 3-(dichloroacetyl)-5-(2-furanyl)-2,2-dimethyl]
safening of corn, assessment in words (corn [1]): excellent protection for corn
% Injury Corn (corn [2]; [5]): 5%
% Injury Corn (corn [2]; [6]): 15%
% Injury Corn (corn [2]; [7]): 0%
% Injury Corn (corn [2]; [8]): 35%
% Injury Corn (corn [2]; [9]): 15%
% Injury Corn (corn [2]; [10]): 15%
% Injury VL [3, 5]: 90%
% Injury VL [3, 6]: 95%
% Injury VL [3, 7]: 95%
% Injury VL [3, 8]: 95%
% Injury VL [3, 9]: 95%
% Injury VL [3, 10]: 100%

COC(=O)c1c(Cl)nn(C)c1S(=O)(=O)NC(=O)Nc1nc(OC)cc(OC)n1 [No.1]
% Injury Corn (corn [4]; [11]): 10%
% Injury Corn (corn [4]; Herbicide No.1 1.12 kg/ha alone): 15%
% Injury Corn (corn [2]; [12]): 55%
% Injury Corn (corn [2]; [13]): 65%
% Injury Corn (corn [2]; [14]): 75%
% Injury Corn (corn [2]; [15]): 75%
% Injury Corn (corn [2]; [16]): 35%
% Injury Corn (corn [2]; [17]): 85%
% Injury Corn (corn [2]; [11]): 70%
% Injury Corn (corn [2]; [18]): 90%
% Injury Corn (corn [2]; [19]): 85%
% Injury Corn (corn [2]; [20]): 95%
% Injury Corn (corn [2]; [21]): 90%
% Injury Corn (corn [2]; [22]): 70%
% Injury Corn (corn [2]; [23]): 90%
% Injury Corn (corn [2]; [24]): 85%
% Injury VL [3, 12]: 95%
% Injury VL [3, 13]: 90%
% Injury VL [3, 14]: 100%
% Injury VL [3, 15]: 95%
% Injury VL [3, 16]: 90%
% Injury VL [3, 17]: 100%
% Injury VL [3, 11]: 95%
% Injury VL [3, 18]: 100%
% Injury VL [3, 19]: 100%
% Injury VL [3, 20]: 95%
% Injury VL [3, 21]: 95%
% Injury VL [3, 22]: 95%
% Injury VL [3, 23]: 100%
% Injury VL [3, 24]: 100%
